Experimental data reported in ChEMBL document CHEMBL4402557, “Nidufexor (LMB763), a Novel FXR Modulator for the Treatment of Nonalcoholic Steatohepatitis” (J Med Chem, 2020).
≈ marks a conversion by molar mass, not a printed value. Calls of active or inactive are those of the source. The rule behind the calls is not given here.

What was measured:
Bile acid receptor [1] = target: T1, Bile acid receptor (Homo sapiens, UniProt Q96RI1); assay: Agonist activity at GST-tagged human FXR-LBD (193 to 472 residues) using biotinylated SRC-1 peptide as substrate incubated for 1 hrs by HTRF assay
T1 sequence (Q96RI1 whole entry): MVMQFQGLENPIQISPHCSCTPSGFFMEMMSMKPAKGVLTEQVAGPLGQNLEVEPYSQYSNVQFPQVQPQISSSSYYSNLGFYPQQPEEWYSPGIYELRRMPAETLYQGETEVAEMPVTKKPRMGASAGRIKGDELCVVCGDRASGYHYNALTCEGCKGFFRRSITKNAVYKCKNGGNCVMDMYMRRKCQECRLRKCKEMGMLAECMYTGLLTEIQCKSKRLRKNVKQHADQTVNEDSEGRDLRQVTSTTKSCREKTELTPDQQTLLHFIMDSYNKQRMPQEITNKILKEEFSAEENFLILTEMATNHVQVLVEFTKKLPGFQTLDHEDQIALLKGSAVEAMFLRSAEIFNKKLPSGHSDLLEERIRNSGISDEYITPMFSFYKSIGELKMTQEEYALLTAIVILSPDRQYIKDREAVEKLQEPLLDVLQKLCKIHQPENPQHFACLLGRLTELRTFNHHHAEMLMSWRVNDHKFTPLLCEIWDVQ

[2] = Solubility of compound in pH 6.5 FASSIF at 2 mg measured for 5 to 60 mins by UV spectroscopic method; type: physicochemical
Bile acid receptor [3] = target: T1, Bile acid receptor; assay: Agonist activity at FXR transfected in human HEK293T cells o-expressing pGL3/hBSEP/luc incubated for 24 hrs by Steady-Glo reagent based luciferase reporter gene assay; type: cell-based
Mus musculus = assay: Anti Steato-hepatitic activity in STZ/HFD induced C57BL/6J mouse STAM model assessed as reduction in NAS at 25 mg/kg, po administered via oral gavage once daily for 3 weeks and measured on 9 week by H and E staining based assay; type: functional, organism-based
[4] = Oral bioavailability in Wistar rat at 10 mg/kg in presence of PEG 300/D5W(3:1); type: ADME, organism-based; details: in vivo
[5] = Oral bioavailability in Wistar rat at 10 mg/kg in presence of TRIS salt; type: ADME, organism-based; details: in vivo
[6] = Oral bioavailability in Wistar rat at 10 mg/kg in presence of 0.5% CMC/0.5% Tween 80; type: ADME, organism-based; details: in vivo
[7] = Oral bioavailability in Wistar rat at 100 mg/kg in presence of TRIS salt; type: ADME, organism-based; details: in vivo
[8] = Volume of distribution at steady state in Wistar rat at 3 mg/kg, iv; type: ADME, organism-based; details: in vivo, read-out: Vdss
[9] = Permeability of the compound by PAMPA; type: ADME
[10] = Clearance in Wistar rat at 3 mg/kg, iv; type: ADME, organism-based; details: in vivo
[11] = Half life in Wistar rat at 3 mg/kg, iv; type: ADME, organism-based; details: in vivo
[12] = Lipophilicity, logD of compound at pH 6.8; type: physicochemical; details: buffer

## CC(=O)NCCNC(=O)c1nn(C)c2c1COc1ccccc1-2
Bile acid receptor [1]
  EC50: > 10 µM

## CC(=O)NCCN(Cc1cccc(F)c1)C(=O)c1nn(C)c2c1COc1ccc(Br)cc1-2
[2]
  solubility: 80 µM (≈ 40.1 µg/mL)

## CC(=O)NCCN(C(=O)c1nn(C)c2c1COc1ccc(Cl)cc1-2)C(C)c1ccccc1 (racemic)
Bile acid receptor [1]
  EC50: > 10 µM
Bile acid receptor [3]
  EC50: > 10 µM

## CC[C@H]1[C@@H](O)[C@@H]2[C@H](CC[C@]3(C)[C@@H]([C@H](C)CCC(=O)O)CC[C@@H]23)[C@@]2(C)CC[C@@H](O)C[C@@H]12
Mus musculus
  Activity: inactive

## CC(=O)NCCN(Cc1ccccc1F)C(=O)c1nn(C)c2c1COc1ccc(Br)cc1-2
[2]
  solubility: < 2 µM

## Cn1nc(C(=O)N(CC(=O)Nc2cc(C(=O)O)ccc2F)Cc2cccc(F)c2)c2c1-c1cc(F)ccc1OC2
[4]
  bioavailability: 36%
[5]
  bioavailability: 56%
[6]
  bioavailability: 5%
[7]
  bioavailability: 28%
[8]
  Vd: 1.6 L/kg
[9]
  permeability: 86%
[10]
  clearance: 9.6 mL/min/kg
[11]
  half-life: 3.6 h
[2]
  solubility: 46 µM (≈ 25.3 µg/mL)

## CC(=O)NCCN(Cc1ccccc1)C(=O)c1n[nH]c2c1COc1ccc(Br)cc1-2
Bile acid receptor [1]
  EC50: > 10 µM
Bile acid receptor [3]
  EC50: 11 µM

## Cn1nc(C(=O)N(CCNc2cc(C(=O)O)ccc2F)Cc2cccc(F)c2)c2c1-c1cc(F)ccc1OC2
[4]
  bioavailability: 22%
[5]
  bioavailability: 15%
[6]
  bioavailability: 17%
[7]
  bioavailability: 12%
[8]
  Vd: 1.43 L/kg
[9]
  permeability: 96%
[10]
  clearance: 19.9 mL/min/kg
[11]
  half-life: 1.97 h
[2]
  solubility: > 175 µM

## CC(=O)NCCN(Cc1ccccc1)C(=O)c1nn(C)c2c1COc1ccccc1-2
[2]
  solubility: > 175 µM

## CC(=O)NCCN(Cc1ccccc1)C(=O)c1nn(C)c2c1COc1ccc(C3CC3)cc1-2
[2]
  solubility: 9 µM (≈ 4 µg/mL)

## O=C(O)c1cc(F)c2nc(N3[C@@H]4CC[C@H]3C[C@@H](OCc3c(-c5ccccc5OC(F)(F)F)noc3C3CC3)C4)sc2c1 [TROPIFEXOR]
[12]
  logD: 3.2
[2]
  solubility: 110 µM (≈ 66.4 µg/mL)

## CC(=O)NCCN(Cc1ccccc1)C(=O)c1nn(C)c2c1COc1ccc(Cl)cc1-2
[2]
  solubility: > 175 µM

## CC(=O)NCCN(Cc1ccccc1)C(=O)c1nn(C)c2c1COc1ccc(Br)cc1-2
[2]
  solubility: 73 µM (≈ 35.3 µg/mL)

## CC(=O)NCCN(Cc1ccccn1)C(=O)c1nn(C)c2c1COc1ccc(Br)cc1-2
[2]
  solubility: < 2 µM

## CC(=O)NCCN(Cc1ccccc1)C(=O)c1nn(C(C)C)c2c1COc1ccc(Br)cc1-2
Bile acid receptor [1]
  EC50: 6 µM
Bile acid receptor [3]
  EC50: 2.7 µM

## CC(=O)NCCN(Cc1ccccc1)C(=O)c1c2c(nn1C)-c1cc(Br)ccc1OC2
Bile acid receptor [1]
  EC50: 6 µM
Bile acid receptor [3]
  EC50: > 20 µM

## CC(=O)NCCN(C)C(=O)c1nn(C)c2c1COc1ccccc1-2
Bile acid receptor [1]
  EC50: > 10 µM

## CC(=O)NCCN(Cc1ccc(F)cc1)C(=O)c1nn(C)c2c1COc1ccc(Br)cc1-2
[2]
  solubility: 41 µM (≈ 20.6 µg/mL)

## CC(=O)NCCN(Cc1ccccc1)C(=O)c1nn(C)c2c1COc1ccc(I)cc1-2
[2]
  solubility: 3 µM (≈ 1.59 µg/mL)
